Data as given in patent US8129370B2, “Use of oxicam compounds” (Dritte PatentPortfolio Beteiligungsgesellschaft MBH & Co. KG, priority 2003, dated 2012).
Each block holds one molecule with its values, some of them ahead of it.

Assays:
Aβ42 = conditions: WO 01/78721 A1; cited from earlier work
[1] = test system: amyloid precursor protein (APP); conditions: cited from earlier work
COX-2 [2] = biological target: T1, COX-2 (Homo sapiens, UniProt P35354); experiment: inhibition of COX-2 (isozyme of the eicosanoid metabolism); format: biochemical
T1 construct: LPS-stimulated Mono Mac 6-cells (COX-2); endogenous in cells; host or cells: LPS-stimulated Mono Mac 6 cells
T1 sequence (P35354 18-604): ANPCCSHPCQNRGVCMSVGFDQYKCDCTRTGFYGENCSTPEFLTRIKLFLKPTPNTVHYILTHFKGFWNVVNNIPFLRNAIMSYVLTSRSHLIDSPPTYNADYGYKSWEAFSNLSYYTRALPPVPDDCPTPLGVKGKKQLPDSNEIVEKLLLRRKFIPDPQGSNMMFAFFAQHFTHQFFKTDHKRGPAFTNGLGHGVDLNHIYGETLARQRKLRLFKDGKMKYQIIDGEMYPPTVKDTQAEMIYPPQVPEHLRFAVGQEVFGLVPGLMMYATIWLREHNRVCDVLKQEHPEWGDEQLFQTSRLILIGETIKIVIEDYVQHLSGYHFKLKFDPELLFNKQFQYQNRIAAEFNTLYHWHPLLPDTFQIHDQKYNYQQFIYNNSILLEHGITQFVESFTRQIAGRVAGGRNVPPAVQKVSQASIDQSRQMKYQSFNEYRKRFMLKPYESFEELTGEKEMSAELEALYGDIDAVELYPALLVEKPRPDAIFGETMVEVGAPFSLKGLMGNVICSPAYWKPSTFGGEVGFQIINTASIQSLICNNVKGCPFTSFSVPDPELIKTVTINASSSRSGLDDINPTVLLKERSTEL

COX-2 [3] = biological target: T1, COX-2; experiment: inhibition of eicosanoid formation in LPS-stimulated Mono Mac 6-cells (COX-2); format: cell-based; conditions: FIG. 7
plasma half-life = conditions: in vivo
[4] = Pruss et al. 1989; cited from earlier work
[5] = cited from earlier work
COX-1 [6] = biological target: T2, COX-1 (Homo sapiens, UniProt P23219); experiment: inhibition of COX-1 (isozyme of the eicosanoid metabolism); format: biochemical; design: eicosanoid formation in HEL cells (COX-1); endogenous in cells; host or cells: HEL cells
T2 sequence (P23219 24-599): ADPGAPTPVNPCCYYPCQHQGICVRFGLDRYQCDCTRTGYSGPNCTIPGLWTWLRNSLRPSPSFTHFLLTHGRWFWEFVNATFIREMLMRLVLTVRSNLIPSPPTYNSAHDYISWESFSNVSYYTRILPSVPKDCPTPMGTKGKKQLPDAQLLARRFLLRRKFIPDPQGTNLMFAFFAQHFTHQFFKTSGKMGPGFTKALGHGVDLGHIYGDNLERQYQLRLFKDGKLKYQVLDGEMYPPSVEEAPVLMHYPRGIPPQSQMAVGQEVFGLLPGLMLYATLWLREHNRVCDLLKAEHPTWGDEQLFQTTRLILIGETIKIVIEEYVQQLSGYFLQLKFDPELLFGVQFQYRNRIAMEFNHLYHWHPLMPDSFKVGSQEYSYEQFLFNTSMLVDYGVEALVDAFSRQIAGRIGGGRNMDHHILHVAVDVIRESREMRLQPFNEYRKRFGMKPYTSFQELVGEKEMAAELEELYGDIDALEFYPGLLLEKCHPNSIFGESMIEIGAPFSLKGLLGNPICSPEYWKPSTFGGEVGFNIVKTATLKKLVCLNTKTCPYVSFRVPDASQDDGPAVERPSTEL

COX-1 [7] = biological target: T2, COX-1; experiment: inhibition of eicosanoid formation in HEL cells (COX-1); format: cell-based; design: eicosanoid formation in HEL cells (COX-1); endogenous in cells; host or cells: HEL cells; conditions: FIG. 7

SMILES: CN1C(C(=O)Nc2ccccn2)=C(O)c2ccccc2S1(=O)=O [peroxicam]
influence on the expression of Aβ42 (Aβ42): do not influence the expression of Aβ42 and even increase the expression thereof, respectively

SMILES: Cc1cc(NC(=O)C2=C(O)c3ccccc3S(=O)(=O)N2C)no1 [isoxicam]
influence on the expression of Aβ42 (Aβ42): do not influence the expression of Aβ42 and even increase the expression thereof, respectively

SMILES: CC(C)Cc1ccc(C(C)C(=O)O)cc1 (stereo not shown) [Ibuprofen]
portion of the amyloid β-42 peptide [1]: lowered
portion of the non-amyloidogenic soluble APP [1]: increased

inhibition of COX-2 (COX-2 [2]): inhibits
inhibition of the eicosanoid formation (COX-2 [3]): inhibition
plasma half-life (plasma half-life): short
inhibition of COX-1 (COX-1 [6]): inhibits
inhibition of the eicosanoid formation (COX-1 [7]): inhibition
SMILES: CN1C(C(=O)Nc2ccccn2)=C(O)c2sc(Cl)cc2S1(=O)=O [lornoxicam]
crossing the blood-brain barrier [4]: not capable of crossing the blood-brain barrier
severe undesired events reported ([5]; in one million of prescriptions): less than 10
gastro-intestinal and other tolerance ([5]; in vivo): good
side-effects found during observation of usage ([5]; in vivo): below 0.05%
